According to ChEMBL document CHEMBL1201862, “PubChem BioAssay data set” (2004):
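Grown in 96-well plates, cells were treated for 48 hours with each compound at five concentrations. Insufficient inhibition: endpoint recorded as highest concentration tested. GI50: concentration for 50% inhibition of growth.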 Active and inactive are the calls of the source. No stated cut-off is given here; in the data, active = GI50 up to about 1.1 µM and inactive = higher.

Key:
Assay in all cases: NCI tumour cell line growth inhibition, 48 h
NCI-H23 = tested on: NCI-H23
Hs-578T = tested on: Hs-578T
OVCAR-3 = tested on: OVCAR-3
SR = tested on: SR
NCI-H522 = tested on: NCI-H522
DU-145 = tested on: DU-145
ACHN = tested on: ACHN
MDA-N = tested on: MDA-N
A498 = tested on: A498
KM12 = tested on: KM12
SF-295 = tested on: SF-295
UACC-62 = tested on: UACC-62
TK-10 = tested on: TK-10
HL-60 = tested on: HL-60
PC-3 = tested on: PC-3
COLO 205 = tested on: COLO 205
NCI-H226 = tested on: NCI-H226
SF-268 = tested on: SF-268
CCRF-CEM = tested on: CCRF-CEM
MOLT-4 = tested on: MOLT-4
HCT-15 = tested on: HCT-15
MDA-MB-435 = tested on: MDA-MB-435
NCI/ADR-RES = tested on: NCI/ADR-RES
IGROV-1 = tested on: IGROV-1
SK-OV-3 = tested on: SK-OV-3
SNB-75 = tested on: SNB-75
LOX IMVI = tested on: LOX IMVI
RXF 393 = tested on: RXF 393
SNB-19 = tested on: SNB-19
RPMI-8226 = tested on: RPMI-8226
SK-MEL-28 = tested on: SK-MEL-28
HCC 2998 = tested on: HCC 2998
SN12C = tested on: SN12C
M14 = tested on: M14
OVCAR-4 = tested on: OVCAR-4
SK-MEL-5 = tested on: SK-MEL-5
HOP-92 = tested on: HOP-92
U-251 = tested on: U-251
OVCAR-5 = tested on: OVCAR-5
T47D = tested on: T47D
MDA-MB-231 = tested on: MDA-MB-231
SK-MEL-2 = tested on: SK-MEL-2
SW-620 = tested on: SW-620
A549 = tested on: A549
MCF7 = tested on: MCF7
SF-539 = tested on: SF-539
K562 = tested on: K562
Malme-3M = tested on: Malme-3M
UO-31 = tested on: UO-31
HT-29 = tested on: HT-29
EKVX = tested on: EKVX
HCT-116 = tested on: HCT-116
CAKI-1 = tested on: CAKI-1
HOP-62 = tested on: HOP-62
NCI-H460 = tested on: NCI-H460
BT-549 = tested on: BT-549
OVCAR-8 = tested on: OVCAR-8
UACC-257 = tested on: UACC-257
786-0 = tested on: 786-0

Measured: GI50

CNC(=O)OCc1c(COC(=O)NC)c(-c2ccc(-c3ccccc3)cc2)n(C)c1C
active: SR 0.116 µM | ACHN 0.493 µM | A498 0.504 µM | HL-60 0.351 µM | SF-268 0.755 µM | CCRF-CEM 0.502 µM | MOLT-4 0.299 µM | RXF 393 0.512 µM | RPMI-8226 0.467 µM | SN12C 0.726 µM | SK-MEL-2 0.494 µM | K562 0.822 µM | CAKI-1 0.443 µM | NCI-H460 0.401 µM
2.17 µM: HCT-15
inactive: NCI-H23 2.06 µM | Hs-578T 11 µM | OVCAR-3 2.54 µM | NCI-H522 1.58 µM | DU-145 2.18 µM | MDA-N 4.34 µM | KM12 8.04 µM | SF-295 1.43 µM | UACC-62 1.64 µM | TK-10 3.15 µM | PC-3 2.52 µM | COLO 205 4.32 µM | NCI-H226 7.98 µM | MDA-MB-435 5.41 µM | NCI/ADR-RES 2.64 µM | IGROV-1 2.24 µM | SK-OV-3 2.88 µM | SNB-75 2.95 µM | LOX IMVI 2.19 µM | SNB-19 3.33 µM | SK-MEL-28 10.9 µM | HCC 2998 2.82 µM | M14 1.47 µM | OVCAR-4 3.08 µM | SK-MEL-5 3.1 µM | HOP-92 2.99 µM | U-251 1.92 µM | OVCAR-5 2.35 µM | T47D 2.39 µM | MDA-MB-231 2.69 µM | SW-620 5.48 µM | A549 1.9 µM | MCF7 2.75 µM | SF-539 1.86 µM | Malme-3M 1.15 µM | UO-31 1.18 µM | HT-29 2.7 µM | EKVX 2.44 µM | HCT-116 2.64 µM | HOP-62 2.79 µM | BT-549 1.21 µM | OVCAR-8 2.26 µM | UACC-257 6.95 µM | 786-0 1.56 µM

O=C1OC(CCCN2CCCCC2)(c2ccccc2)CC12CCCC2 (stereo not drawn)
> 95.3 µM: HCT-15
inactive: NCI-H23 > 89.7 µM | Hs-578T 63.1 µM | OVCAR-3 > 100 µM | SR 34.4 µM | NCI-H522 > 100 µM | DU-145 > 100 µM | ACHN > 100 µM | MDA-N > 77.6 µM | A498 57.4 µM | KM12 > 100 µM | SF-295 > 84.9 µM | UACC-62 61.4 µM | TK-10 > 100 µM | HL-60 52.5 µM | PC-3 > 100 µM | COLO 205 32.3 µM | NCI-H226 > 96.6 µM | SF-268 > 100 µM | CCRF-CEM 54.5 µM | MOLT-4 40 µM | MDA-MB-435 67.8 µM | NCI/ADR-RES > 100 µM | IGROV-1 > 100 µM | SK-OV-3 > 100 µM | SNB-75 23 µM | LOX IMVI > 72.1 µM | RXF 393 80 µM | SNB-19 > 100 µM | RPMI-8226 50 µM | SK-MEL-28 22.3 µM | HCC 2998 66.1 µM | SN12C > 100 µM | M14 17.7 µM | OVCAR-4 97.9 µM | SK-MEL-5 18.7 µM | HOP-92 2.1 µM | U-251 > 100 µM | OVCAR-5 > 87.1 µM | T47D > 100 µM | MDA-MB-231 > 75.9 µM | SK-MEL-2 > 100 µM | SW-620 > 100 µM | A549 > 100 µM | MCF7 58.2 µM | SF-539 49.1 µM | K562 40.5 µM | Malme-3M 35.6 µM | UO-31 73.1 µM | HT-29 37.3 µM | EKVX > 100 µM | HCT-116 73.1 µM | CAKI-1 > 100 µM | HOP-62 > 100 µM | NCI-H460 89.1 µM | BT-549 > 100 µM | OVCAR-8 > 100 µM | UACC-257 23.1 µM | 786-0 > 100 µM
